Reference: PubChem BioAssay AID179 (DTP/NCI, 2004)
pEC50, pIC50: −log10 of the molar value. The source made the active and inactive calls.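 Rule for the calls: active = compounds giving half or more protection of infected cells from virus-caused growth loss, again on retest; inactive = the rest.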

Test system: CEM cells HIV-1 protection, formazan growth assay
Test: NCI AIDS Antiviral Assay
Conditions: for pIC50: measured here: growth of uninfected CEM cells
Outline: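 Category rules: moderately active means at least 50% protection on retest, and confirmed active means 100% protection reproducibly. The underlying data came from a formazan growth assay in HIV-1-infected CEM cells.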

Compound	pEC50	pIC50	outcome
O=S1(c2ccccc2)=NC(Nc2ccccc2)=Nc2ccccc21 (stereo unspecified)	< 4.44	4.52	
CCN(CCCl)CCNc1c2ccccc2nc2ccc(OC)cc12			inactive
N#CC12C3C4C5C3C1n1c(=O)n(-c3ccccc3)c(=O)n1C5C42 (stereo unspecified)	< 3.70	< 3.70	
NC(=O)Nc1ccc(S(=O)(=O)c2ccc(N)cc2)cc1	< 3.70	< 3.70	
COc1ccc(C2C3=C(COC3=O)Oc3cc4c(cc32)OCO4)c(OC)c1 (stereo unspecified)	< 3.70	4.91	
O=C1C(=O)c2ccccc2C(O)=C1C(CCc1ccccc1)C1=C(O)c2ccccc2C(=O)C1=O	< 3.70	4.26	
CC1=NN(C(=O)c2ccc(O)cc2)C(=O)C1N=Nc1ccccc1C(=O)O (stereo unspecified)			inactive
CSc1nc(SC)c(Nc2cccc(C)c2)c(SC)n1	< 3.70	5.46	
CC1=Nn2c(nnc2-c2ccccc2Cl)NC(C)(C)C1	< 3.35	3.55	
O=C1CSC(c2ccccc2[N+](=O)[O-])N1c1ccc(-c2ccc(-n3c(-c4ccccc4)nc4ccccc4c3=O)cc2)cc1 (stereo unspecified)	< 3.70	4.02	
CC1=CC2=C(OCO1)C(=O)c1ccccc1C2=O			inactive
CCCC(=N\N=C(N)N)/C(CCC)=N/N=C(N)N	< 3.73	< 3.73	
C1COC2SC3=C(SC(=C4SC5=C(SCCS5)S4)S3)SC2O1 (stereo unspecified)	< 4.00	< 4.00	
CCCCc1ccc(C2=C(O)C(=O)C(c3ccc(CCCC)cc3)=C(O)C2=O)cc1	< 4.36	5.48	
Nc1ncnc2c1ncn2C1C=CC(CO)CC1 (stereo unspecified)	< 3.70	< 3.70	
CC1CN=C(Nc2ccc(F)c(Cl)c2)S1 (stereo unspecified)	< 3.70	3.88	
CCCCCCCCCCCC(=O)OCCOCCOCCOCCOCCOCc1ccc(OC)cc1			inactive
O=C(/C=C/c1ccccc1)c1ccc(Oc2ccccc2)cc1	< 3.70	4.63	
S=C1NCCNC(=S)SS1	< 4.46	< 4.46	
O=C1NCC2(CCNCC2)N1c1ccccc1	< 3.70	< 3.70	
OC(c1ccccn1)C1CNc2ccccc21 (stereo unspecified)			inactive
N=C(N)SCc1ccc2c(c1)S(=O)(=O)c1ccccc1O2	< 3.70	4.88	
O=C(O)/C=C/c1ccc([N+](=O)[O-])cc1	< 4.01	< 4.01	
CCOc1ccc(/C=N\N2C(=O)c3ccccc3C2=O)cc1	< 3.91	< 3.91	

Compound	pEC50	pIC50	outcome
COc1cc(CSc2ccc(O)cc2)cc(O)c1O	< 3.90	4.64	
CC1(C)N=C(/C(Cl)=[N+](/[O-])C(=O)c2ccc(F)cc2)C(C)(C)N1O	< 3.70	4.29	
CC(=O)Oc1ccn2nc(C)c(Br)c2c1Br	< 3.70	4.44	
O=C(Cn1c(=O)ccn(C2OC(CO)C(O)C2F)c1=O)c1ccc(F)cc1 (stereo unspecified)	< 3.70	< 3.70	
CN1C(=O)CN2C(Cl)(Cl)C2(c2ccccc2)c2cc(Cl)ccc21 (stereo unspecified)	< 3.70	3.92	
O=c1ccc2ccc(S)cc2o1	< 3.70	4.49	
CCOC(=O)c1ccc(CSc2ccc(OC)cc2)c([N+](=O)[O-])c1	< 3.99	4.72	
O=C1Cc2ccccc2N1/N=C\c1ccc(O)cc1	< 3.43	4.40	
C=C(C)COc1cc(NC(=S)OC(C)C)ccc1Cl	6.09	5.32	
COC(=O)[C@@H]1C[C@H]([Se]c2ccccc2)CN1C(=O)OCc1ccccc1			inactive
CCOC(=O)CC1=N/C(=N/C(=N)N[N+](=O)[O-])SC1			inactive
COc1ccc(OC)c(/C=C/[N+](=O)[O-])c1	< 3.70	5.53	
C[N+](C)(C)/N=C/c1ccc(O)c(O)c1	< 3.70	< 3.70	
COC1OC2COc3ccccc3OC2C(NC#N)C1OC (stereo unspecified)	< 3.84	4.54	
COc1ccc2c(c1)OC[C@@H]1c3cc(NC(=O)c4ccccc4)c(OC)cc3N(S(=O)(=O)c3ccccc3)[C@H]21	< 3.70	< 3.70	
O=C(O)CNc1c2ccccc2nc2ccccc12			inactive
CC(=N\N)/C(C)=N/N=C(C)/C(C)=N/N=C(C)/C(C)=N/N	< 3.70	3.75	
NS(=O)(=O)c1ccc(-c2c3nc(c(-c4ccc(S(N)(=O)=O)cc4)c4ccc([nH]4)c(-c4ccc(S(N)(=O)=O)cc4)c4nc(c(-c5ccc(S(N)(=O)=O)cc5)c5ccc2[nH]5)C=C4)C=C3)cc1	< 4.01	4.33	
CCOC(=O)CC(NCCSS(=O)(=O)O)C(=O)OCC (stereo unspecified)	< 3.70	< 3.70	
CC1(CO)COC(=O)C(C)(C2(C)NC(C)(CO)COC2=O)N1 (stereo unspecified)	< 3.10	4.55	
CCC[n+]1nc2ccccc2c(=Nc2ccccc2[N+](=O)[O-])[n-]1	< 4.63	< 4.63	
O=C(NCCc1ccccn1)c1ccc2cc(C(=O)N3CC(CCl)c4ccc([N+](=O)[O-])cc43)[nH]c2c1 (stereo unspecified)	< 3.70	4.13	
CC1=C(C(=O)N(C)c2ccc(Cl)c(C(=O)OC(C)C)c2)SCCO1	< 3.62	4.03	
